The values below come from patent publication US20240343747A1, “Heteroaryl compounds as inhibitors of TYK2, composition and application thereof” (Accro Bioscience (HK) Limited, priority 2021, published 2024).

A short description of series [1]: Pharmacokinetic evaluation in mice. Particulars: for plasma exposure and bioavailability in mice (in words): conclusion from Table 9; for AUC / Vd / clearance / half-life / Cmax / Tmax: male, mouse, plasma; for AUC / Vd / clearance / half-life / Cmax / Tmax / F: mice. The series is classed as in vivo. The method, then: The mice pharmacokinetic characteristics of compounds were tested by standard protocols. The candidate compounds were made into clear solution for single intravenous injection (i.v.) and suspension for oral administration (p.o.). Intravenous vehicle is 5% DMSO+10% Solutol+85% Saline. Of which adjusts pH to 3 for B37. While oral vehicle is 0.5% CMCNa for B2 and B22, 5% DMSO+10% Solutol+85% Saline, PH˜3 for B37, 5% DMSO+10% Solutol+85% Saline for B41. The experiment used 6 male mice and 3 mice for intravenous at a dose of 2 mg/kg. Plasma samples were collected at 0 h (before dosing) and 0.083 h, 0.25 h, 0.5 h, 1 h, 2 h, 4 h, 8 h, 24 h after dosing. Another 3 mice were orally administrated with a dose of 10 mg/kg. Plasma samples were collected at 0 h (before dosing) and 0.25 h, 0.5 h, 1 h, 2 h, 4 h, 6 h, 8 h, 24 h after dosing.
(§1) Blood samples were placed in tubes containing K2-EDTA and stored on ice until centrifuged. The blood samples were centrifuged at 6800 g for 6 minutes at 2-8° C. within 1 h after collected, and stored frozen at approximately −80° C.
(§2) The analytical results were confirmed using quality control samples for intra-assay variation. The accuracy of >66.7% of the quality control samples and 50% of all QC samples at each concentration level were between 80-120% of the known value(s).
(§3) Standard set of parameters including area under the curve (AUC(0-t) and AUC(0-∞)), elimination half-live (T1/2), maximum plasma concentration (Cmax), time to reach maximum plasma concentration (Tmax) were calculated using noncompartmental analysis modules in FDA certified pharmacokinetic program Phoenix WinNonlin 7.0 (Pharsight, USA) by the Study Director.

The subject of another series is JAK2/JAK2 pathway. Kind of series: Selectivity: JAK2/JAK2 pathway, TPO-induced p-STAT3 in MEG-1 cells, western blot. The following applies: TPO 100 ng/mL. The class given is cell-based. The method, then:
MEG-1 cells were digested by trypsin, re-suspended in 1640 medium and counted. The compounds to be measured were added to 6 well plates (1 million/per well) for 2 hours, and then TPO (final concentration: 100 ng/mL) was added to stimulate cells for 30 minutes. The cells were collected and lysed with protein lysate. The protein was quantitatively tested by BCA kit. Finally, p-STAT3/STAT3 and internal reference protein β-actin were detected by western blot.

Series [2] is described as follows: Pharmacokinetic evaluation in beagle dog. Particulars: for F / AUC / Vd / clearance / half-life / Cmax / Tmax: beagle dog; for plasma exposure in beagle dog (in words): conclusion from Table 11; for AUC / Vd / clearance / half-life / Cmax / Tmax: plasma. The class given is in vivo. The method, then: The beagle dog pharmacokinetic characteristics of compounds were tested by standard protocols. The candidate compounds were made into clear solution for single intravenous injection (i.v.) and suspension for oral administration (p.o.). Intravenous and oral vehicle is 5% DMSO+10% Solutol+85% Saline. The experiment used 9 dog and 3 dog for intravenous at a dose of 1 mg/kg. Plasma samples were collected at 0 h (before dosing) and 0.083 h, 0.25 h, 0.5 h, 1 h, 2 h, 4 h, 8 h, 24 h after dosing. 3 dog were orally administrated at a dose of 5 mg/kg and 3 dog were orally administrated at a dose of 15 mg/kg. Plasma samples were collected at 0 h (before dosing) and 0.25 h, 0.5 h, 1 h, 2 h, 4 h, 6 h, 8 h, 24 h after dosing.
as §1, §2, §3

Series [3] is described as follows: Plasma protein binding test, monkey. The series is classed as in vitro ADME. The method, then:
(§4) • 1. Test compound and control compound were dissolved in dimethyl sulfoxide (DMSO) to achieve 10 mM stock solutions. DMSO working solutions were prepared at 400 μM. To prepare the loading matrix, compound working solutions (5 μL) were added in a 1:200 ratio to blank matrix (995 μL), and mixed thoroughly. • 2. To prepare the time zero (TO) samples to be used for recovery determination, 50 μL aliquots of loading matrix were transferred in triplicate to the sample collection plate. The samples were immediately matched with opposite blank buffer to obtain a final volume of 100 μL of 1:1 matrix/dialysis buffer (v/v) in each well. 500 μL of stop solution were added to these TO samples. They were then stored at 2-8° C. pending further processes along with other post-dialysis samples. • 3. To load the dialysis device, an aliquot of 150 μL of the loading matrix was transferred to the donor side of each dialysis well in triplicate, and 150 μL of the dialysis buffer was loaded to the receiver side of the well. The dialysis plate was placed in a humidified incubator at 37° C. with 5% CO2 on a shaking platform that rotated slowly (about 100 rpm) for 4 hours • 4. At the end of the dialysis, aliquots of 50 μL of samples were taken from both the buffer side and the matrix side of the dialysis device. […]
(§5) The % Unbound and % Bound were calculated using the following equations: […]

A short description of series [4]: Plasma protein binding test, rat. The series is classed as in vitro ADME. The method, then:
as §4, §5

SMILES strings stand for the structures.

As for `[2H]C([2H])([2H])n1nc(-c2cccc(Nc3cc(NC(=O)C4CC4)ncc3C(=O)CC)c2OC)cc1P(C)(C)=O` [Compound B22], the “plasma exposure and bioavailability in mice (in words)” value (from here on “plasma exposure and bioavailability”) in series [1] was “good plasma exposure and bioavailability”. In series [1] (iv, i.v. 2 mg/kg), the AUC stood at 1350 ng·h/mL, the Vd was 3.1 L/kg, the clearance worked out at 25.4 mL/min/kg and the half-life is 1.4 h. In series [1] (po, p.o. 10 mg/kg), the AUC came out at 6370 ng·h/mL, the maximum concentration (Cmax) turned out to be 2630 ng/mL and the Tmax amounted to 0.33 h. The F in series [1] (p.o. 10 mg/kg) is listed as 94%.

As for `CCC(=O)c1cnc(NC(=O)C2CC2)cc1Nc1cccc(-c2cc(P(=O)(C3CC3)C3CC3)n(C)n2)c1OC` [Compound B37, N-(4-((3-(5-(dicyclopropylphosphoryl)-1-methyl-1H-pyrazol-3-yl)-2-methoxyphenyl)amino)-5-propionylpyridin-2-yl)cyclopropanecarboxamide], the “plasma exposure and bioavailability” value in series [1] was “good plasma exposure and bioavailability”. Also, the area under the curve (AUC) in series [1] (iv, i.v. 2 mg/kg) turned out to be 2160 ng·h/mL; in series [1] (po, p.o. 10 mg/kg), 8420 ng·h/mL; in series [2] (iv, i.v. 1 mg/kg), 9240 ng·h/mL; in series [2] (po, p.o. 5 mg/kg), 21300 ng·h/mL; in series [2] (po, p.o. 15 mg/kg) it was 28600 ng·h/mL. In addition, the Vd worked out at 0.84 L/kg in series [1] (iv, i.v. 2 mg/kg) and 0.33 L/kg in series [2] (iv, i.v. 1 mg/kg). The clearance in series [1] (iv, i.v. 2 mg/kg) was 15.5 mL/min/kg; in series [2] (iv, i.v. 1 mg/kg), 1.9 mL/min/kg. Besides, the half-life in series [1] (iv, i.v. 2 mg/kg) was 0.63 h; in series [2] (iv, i.v. 1 mg/kg), 2.2 h. The Cmax is 4250 ng/mL in series [1] (po, p.o. 10 mg/kg); 3980 ng/mL in series [2] (po, p.o. 5 mg/kg); 4870 ng/mL in series [2] (po, p.o. 15 mg/kg). For the same compound, the Tmax in series [1] (po, p.o. 10 mg/kg) amounted to 0.42 h; in series [2] (po, p.o. 5 mg/kg) it was 0.83 h; in series [2] (po, p.o. 15 mg/kg), 0.67 h. Also, the F in series [1] (p.o. 10 mg/kg) is 78%; in series [2] (p.o. 5 mg/kg), 46%; in series [2] (p.o. 15 mg/kg), 21%. In the series on JAK2/JAK2 pathway, the “effect on TPO-induced downstream STAT3 phosphorylation” value is “no effect”. Moreover, in series [2], the “plasma exposure in beagle dog (in words)” value is on record as “excellent plasma exposure”.

As for `[2H]C([2H])([2H])NC(=O)c1nnc(NC(=O)C2CC2)cc1Nc1cccc(-c2cc(P(=O)(C3CC3)C3CC3)n(C)n2)c1OC` [Compound B41, 6-(cyclopropanecarboxamido)-4-((3-(5-(dicyclopropylphosphoryl)-1-methyl-1H-pyrazol-3-yl)-2-methoxyphenyl)amino)-N-(methyl-d3)pyridazine-3-carboxamide], the results for the fraction unbound at 4 h, 2 μM in series [3] and in series [4] were 0.076 and 0.045, respectively. For the same compound, the “plasma exposure and bioavailability” value in series [1] is “good plasma exposure and bioavailability”. The AUC in series [1] (iv, i.v. 2 mg/kg) was 2670 ng·h/mL; in series [1] (po, p.o. 10 mg/kg), 11900 ng·h/mL; in series [2] (iv, i.v. 1 mg/kg), 4900 ng·h/mL; in series [2] (po, p.o. 5 mg/kg) it was 19400 ng·h/mL; in series [2] (po, p.o. 15 mg/kg), 88000 ng·h/mL. The distribution volume (Vd) in series [1] (iv, i.v. 2 mg/kg) worked out at 1.2 L/kg; in series [2] (iv, i.v. 1 mg/kg), 0.56 L/kg. The clearance in series [1] (iv, i.v. 2 mg/kg) came to 12.7 mL/min/kg; in series [2] (iv, i.v. 1 mg/kg), 4 mL/min/kg. Further, the half-life in series [1] (iv, i.v. 2 mg/kg) was 1.1 h; in series [2] (iv, i.v. 1 mg/kg), 2.1 h. Moreover, the highest concentration (Cmax) in series [1] (po, p.o. 10 mg/kg) is 6560 ng/mL; in series [2] (po, p.o. 5 mg/kg), 3100 ng/mL; in series [2] (po, p.o. 15 mg/kg) it was 9870 ng/mL. Further, the Tmax in series [1] (po, p.o. 10 mg/kg) amounted to 0.5 h; in series [2] (po, p.o. 5 mg/kg), 1 h; in series [2] (po, p.o. 15 mg/kg) it was 1.7 h. The F in series [1] (p.o. 10 mg/kg) was 89%; in series [2] (p.o. 5 mg/kg), 79%; in series [2] (p.o. 15 mg/kg), 120%. In addition, the “effect on TPO-induced downstream STAT3 phosphorylation” value in the series on JAK2/JAK2 pathway is given as “no effect”. Also, the “plasma exposure in beagle dog (in words)” value in series [2] is recorded as “excellent plasma exposure”.

The compound `CCC(=O)c1cnc(NC(=O)C2CC2)cc1Nc1cccc(-c2cc(P(C)(C)=O)n(C)n2)c1OC` [Compound B2, N-(4-((3-(5-(dimethylphosphoryl)-1-methyl-1H-pyrazol-3-yl)-2-methoxyphenyl)amino)-5-propionylpyridin-2-yl)cyclopropanecarboxamide] had a fraction unbound at 4 h, 2 μM in series [3] of 0.042. In addition, the “plasma exposure and bioavailability” value in series [1] was “good plasma exposure and bioavailability”. Also, in series [1] (iv, i.v. 2 mg/kg), the AUC is 1940 ng·h/mL, the Vd was determined as 1.5 L/kg, the clearance is 17.2 mL/min/kg and the half-life was 1 h. In series [1] (po, p.o. 10 mg/kg), the AUC worked out at 4140 ng·h/mL, the peak level (Cmax) was 1180 ng/mL and the Tmax came out at 3 h. In addition, in series [1] (p.o. 10 mg/kg), the F is 43%. The compound further showed a fraction unbound at 4 h, 2 μM in series [4] of 0.055.
